Results as given in ChEMBL document CHEMBL5365432, “Anticancer Activities of DNA-Alkylating Pyrrole-Imidazole Polyamide Analogs Targeting RUNX Transcription Factors against p53-Mutated Pancreatic Cancer PANC-1 Cells” (J Med Chem, 2023).
Active and inactive are the calls of the source. The calls are words filed in the database; no cut-off is given here.

What was measured:
[1] = Toxicity in CB17.Cg-PrkdcscidLystbg-j/CrlCrlj mouse xenografted with human PANC-1 cells assessed as body weight loss at 5 mg/kg, iv administered twice a week for 3 weeks; format: organism-based; conditions: in vivo, 504 h
[2] = Cytotoxicity against human hTERT-HPNE cells assessed as cell viability at 3 uM incubated for 3 days by colorimetric assay relative to control; format: toxicity, cell-based; conditions: time 3 day, read-out: Activity
DNA [3] = assay: Binding affinity to DNA (unknown origin) assessed as DNA alkylation at RUNX-binding site at 150 uM incubated for 18 hrs by HPLC analysis; format: nucleic-acid assay
PANC-1 [4] = assay: Cytotoxicity against human PANC-1 cells assessed as cell viability at 3 uM incubated for 3 days by colorimetric assay relative to control; format: functional; conditions: PANC-1, 72 h, time 3 day, read-out: Activity
PANC-1 [5] = assay: Induction of apoptosis in human PANC-1 cells assessed as increase in phosphorylated p53 protein level at S392 residue at 3 uM incubated for 72 hrs by proteomic profiling array; format: functional, cell-based
PANC-1 [6] = assay: Induction of apoptosis in human PANC-1 cells assessed as late apoptotic cells at 3 uM incubated for 72 hrs by Annexin V-FITC/PI staining based flow cytometry (reference value: 2.9 %); format: functional
PANC-1 [7] = assay: Induction of apoptosis in human PANC-1 cells assessed as increase in phosphorylated p53 protein level at S46 residue at 3 uM incubated for 72 hrs by proteomic profiling array; format: functional, cell-based
DNA [8] = assay: Binding affinity to DNA (unknown origin) assessed as formation of DNA alkylation product at 150 uM incubated for 18 hrs measured after 20 mins by HPLC/MALDI-TOF MS analysis; format: nucleic-acid assay; conditions: time 18.33 hrs
PANC-1 [9] = assay: Induction of apoptosis in human PANC-1 cells assessed as necrotic cells at 3 uM incubated for 72 hrs by Annexin V-FITC/PI staining based flow cytometry (reference value: 1.2 %); format: functional
PANC-1 [10] = assay: Induction of apoptosis in human PANC-1 cells assessed as upregulation of TAp63 mRNA level at 3 uM incubated for 48 hrs by RT-qPCR analysis; format: functional, cell-based
PANC-1 [11] = assay: Induction of apoptosis in human PANC-1 cells assessed as increase in phosphorylated p53 protein level at S15 residue at 3 uM incubated for 72 hrs by proteomic profiling array; format: functional, cell-based
PANC-1 [12] = assay: Anti-cancer activity against human PANC-1 cells xenografted in CB17.Cg-PrkdcscidLystbg-j/CrlCrlj mouse assessed as fold change in tumor volume at 1 mg/kg, iv administered twice a week for 3 weeks relative to gemcitabine; format: functional
PANC-1 [13] = assay: Induction of apoptosis in human PANC-1 cells assessed as early apoptotic cells at 3 uM incubated for 72 hrs by Annexin V-FITC/PI staining based flow cytometry (reference value: 1.5 %); format: functional
PANC-1 [14] = assay: Anti-cancer activity against human PANC-1 cells xenografted in CB17.Cg-PrkdcscidLystbg-j/CrlCrlj mouse assessed as reduction in tumor volume at 5 mg/kg, iv administered twice a week for 3 weeks; format: functional, organism-based
PANC-1 [15] = assay: Induction of apoptosis in human PANC-1 cells assessed as upregulation of TAp73 mRNA level at 3 uM incubated for 48 hrs by RT-qPCR analysis; format: functional, cell-based
PANC-1 [16] = assay: Induction of apoptosis in human PANC-1 cells assessed as viable cells at 3 uM incubated for 72 hrs by Annexin V-FITC/PI staining based flow cytometry (reference value: 94.3 %); format: functional; conditions: read-out: Activity
PANC-1 [17] = assay: Induction of apoptosis in human PANC-1 cells assessed as suppression of BCL11A mRNA level at 3 uM incubated for 48 hrs by RT-qPCR analysis; format: functional, cell-based

CN(C)CCCNC(=O)c1cc(NC(=O)c2cc(NC(=O)c3cc(NC(=O)c4cc(NC(=O)CCCNC(=O)c5nc(NC(=O)c6cc(NC(=O)c7nc(NC(=O)c8nc(NC(=O)CCNC(=O)CCCc9ccc(N(CCCl)CCCl)cc9)cn8C)cn7C)cn6C)cn5C)cn4C)cn3C)cn2C)cn1C
Activity [1]: Non-Toxic
viability at 72 h, 3 µM [2]: 73.8%
Activity (DNA [3]): Active
viability at 3 µM (PANC-1 [4]): 67.7%
Activity (PANC-1 [5]): Active
Activity (PANC-1 [6]): 14%
Activity (PANC-1 [7]): Active
Activity (DNA [8]): Active
Activity (PANC-1 [9]): 2.4%
Activity (PANC-1 [10]): inactive
Activity (PANC-1 [11]): Active
fold change (FC) (PANC-1 [12]): 50
Activity (PANC-1 [13]): 15%
Activity (PANC-1 [14]): Active
Activity (PANC-1 [15]): Active
viability at 3 µM (PANC-1 [16]): 68.7%
Activity (PANC-1 [17]): Active

CN(C)CCCNC(=O)c1nc(NC(=O)c2cc(NC(=O)c3nc(NC(=O)c4nc(NC(=O)CCCNC(=O)c5cc(NC(=O)c6cc(NC(=O)c7cc(NC(=O)c8cc(NC(=O)CCNC(=O)CCCc9ccc(N(CCCl)CCCl)cc9)cn8C)cn7C)cn6C)cn5C)cn4C)cn3C)cn2C)cn1C
Activity (DNA [3]): inactive
Activity (DNA [8]): Active

CN(C)CCCNC(=O)c1nc(NC(=O)c2nc(NC(=O)c3cc(NC(=O)c4nc(NC(=O)CCCNC(=O)c5cc(NC(=O)c6cc(NC(=O)c7cc(NC(=O)c8cc(NC(=O)CCNC(=O)CCCc9ccc(N(CCCl)CCCl)cc9)cn8C)cn7C)cn6C)cn5C)cn4C)cn3C)cn2C)cn1C
Activity [1]: Non-Toxic
viability at 72 h, 3 µM [2]: 82%
Activity (DNA [3]): Active
viability at 3 µM (PANC-1 [4]): 85%
Activity (PANC-1 [5]): Active
Activity (PANC-1 [6]): 9.1%
Activity (PANC-1 [7]): Active
Activity (DNA [8]): Active
Activity (PANC-1 [9]): 1.6%
Activity (PANC-1 [10]): Active
Activity (PANC-1 [11]): Active
fold change (FC) (PANC-1 [12]): 50
Activity (PANC-1 [13]): 10.8%
Activity (PANC-1 [14]): Active
Activity (PANC-1 [15]): Active
viability at 3 µM (PANC-1 [16]): 78.5%
Activity (PANC-1 [17]): Active

CN(C)CCCNC(=O)c1cc(NC(=O)c2cc(NC(=O)c3cc(NC(=O)c4cc(NC(=O)CCCNC(=O)c5nc(NC(=O)c6nc(NC(=O)c7cc(NC(=O)c8nc(NC(=O)CCNC(=O)CCCc9ccc(N(CCCl)CCCl)cc9)cn8C)cn7C)cn6C)cn5C)cn4C)cn3C)cn2C)cn1C
Activity [1]: Non-Toxic
viability at 72 h, 3 µM [2]: 79.5%
Activity (DNA [3]): inactive
viability at 3 µM (PANC-1 [4]): 74.7%
Activity (PANC-1 [5]): Active
Activity (PANC-1 [6]): 12.4%
Activity (PANC-1 [7]): Active
Activity (DNA [8]): Active
Activity (PANC-1 [9]): 1.9%
Activity (PANC-1 [10]): inactive
Activity (PANC-1 [11]): Active
Activity (PANC-1 [13]): 12.5%
Activity (PANC-1 [14]): Active
Activity (PANC-1 [15]): Active
viability at 3 µM (PANC-1 [16]): 73.1%
Activity (PANC-1 [17]): Active
